Data: ChEMBL document CHEMBL5625261, “Cytotoxic effects of kinetin riboside and its selected analogues on cancer cell lines” (Bioorg Med Chem Lett, 2024)

How the values were obtained:
OVCAR-3 [1] = test: Cytotoxicity against human OVCAR-3 cells assessed as reduction in cell viability incubated for 24 hrs by MTT assay; assay type: functional, cell-based; conditions: OVCAR-3, 24 h
MIA PaCa-2 [2] = test: Cytotoxicity against human MIA PaCa-2 cells assessed as reduction in cell viability incubated for 24 hrs by MTT assay; assay type: functional, cell-based; conditions: MIA PaCa-2, 24 h
MCF7 [3] = test: Cytotoxicity against human MCF7 cells assessed as reduction in cell viability incubated for 48 hrs by MTT assay; assay type: functional, cell-based; conditions: MCF7, 48 h
MIA PaCa-2 [4] = test: Cytotoxicity against human MIA PaCa-2 cells assessed as reduction in cell viability incubated for 72 hrs by MTT assay; assay type: functional, cell-based; conditions: MIA PaCa-2, 72 h
HeLa [5] = test: Cytotoxicity against human HeLa cells assessed as reduction in cell viability incubated for 72 hrs by MTT assay; assay type: functional, cell-based
[6] = Cytotoxicity against human MRC5 cells assessed as reduction in cell viability incubated for 24 hrs by MTT assay; assay type: toxicity, cell-based
[7] = Cytotoxicity against human MRC5 cells assessed as reduction in cell viability incubated for 48 hrs by MTT assay; assay type: toxicity, cell-based
OVCAR-3 [8] = test: Cytotoxicity against human OVCAR-3 cells assessed as reduction in cell viability incubated for 48 hrs by MTT assay; assay type: functional, cell-based; conditions: OVCAR-3, 48 h
Caco-2 [9] = test: Cytotoxicity against human Caco-2 cells assessed as reduction in cell viability incubated for 48 hrs by MTT assay; assay type: functional, cell-based; conditions: Caco-2, 48 h
Caco-2 [10] = test: Cytotoxicity against human Caco-2 cells assessed as reduction in cell viability incubated for 24 hrs by MTT assay; assay type: functional, cell-based; conditions: Caco-2, 24 h
HeLa [11] = test: Cytotoxicity against human HeLa cells assessed as reduction in cell viability incubated for 24 hrs by MTT assay; assay type: functional, cell-based
HeLa [12] = test: Cytotoxicity against human HeLa cells assessed as reduction in cell viability incubated for 48 hrs by MTT assay; assay type: functional, cell-based
[13] = Cytotoxicity against human MRC5 cells assessed as reduction in cell viability incubated for 72 hrs by MTT assay; assay type: toxicity, cell-based
OVCAR-3 [14] = test: Cytotoxicity against human OVCAR-3 cells assessed as reduction in cell viability incubated for 72 hrs by MTT assay; assay type: functional, cell-based; conditions: OVCAR-3, 72 h
Caco-2 [15] = test: Cytotoxicity against human Caco-2 cells assessed as reduction in cell viability incubated for 72 hrs by MTT assay; assay type: functional, cell-based; conditions: Caco-2, 72 h
MIA PaCa-2 [16] = test: Cytotoxicity against human MIA PaCa-2 cells assessed as reduction in cell viability incubated for 48 hrs by MTT assay; assay type: functional, cell-based; conditions: MIA PaCa-2, 48 h
MCF7 [17] = test: Cytotoxicity against human MCF7 cells assessed as reduction in cell viability incubated for 24 hrs by MTT assay; assay type: functional, cell-based; conditions: MCF7, 24 h
MCF7 [18] = test: Cytotoxicity against human MCF7 cells assessed as reduction in cell viability incubated for 72 hrs by MTT assay; assay type: functional, cell-based; conditions: MCF7, 72 h
MIA PaCa-2 [19] = test: Cytotoxicity against human MIA PaCa-2 cells assessed as reduction in cell viability at 100 uM incubated for 72 hrs by MTT assay relative to control; assay type: functional
MIA PaCa-2 [20] = test: Cytotoxicity against human MIA PaCa-2 cells assessed as reduction in cell viability at 100 uM incubated for 24 hrs by MTT assay relative to control; assay type: functional
HCT-15 = test: Antiproliferative activity against human HCT-15 cells assessed as cell growth inhibition incubated for 4 days by SRB assay; assay type: functional, cell-based; conditions: HCT-15, 96 h
LOX IMVI = test: Antiproliferative activity against human LOX IMVI cells assessed as cell growth inhibition incubated for 72 hrs by Beckman Coulter counting method; assay type: functional, cell-based
HT-29 = test: Antiproliferative activity against human HT-29 cells assessed as cell growth inhibition incubated for 72 hrs by Beckman Coulter counting method; assay type: functional, cell-based; conditions: HT-29, 72 h
HL-60 [21] = test: Cytotoxicity against human HL-60 cells assessed as inhibition of cell growth incubated for 5 days; assay type: functional, cell-based; conditions: HL-60, 120 h
A-375 = test: Antiproliferative activity against human A-375 cells assessed as cell growth inhibition incubated for 72 hrs by Beckman Coulter counting method; assay type: functional, cell-based; conditions: A-375, 72 h
B16 = test: Cytotoxicity against mouse B16 cells assessed as inhibition of cell growth incubated for 10 days by crystal violet staining based assay; assay type: functional; conditions: B16, 240 h
[22] = Antiproliferative activity against human HS27 cells assessed as cell growth inhibition incubated for 72 hrs by Beckman Coulter counting method; assay type: toxicity, cell-based
MRC5 = test: Cytotoxicity against human MRC5 cells assessed as reduction in cell viability at 100 uM incubated for 24 hrs by MTT assay relative to control; assay type: toxicity, cell-based; conditions: mrc5, 24 h
DU-145 = test: Antiproliferative activity against human DU-145 cells assessed as reduction in cell viability incubated for 48 to 96 hrs by crystal violet staining assay; assay type: functional; conditions: time 48-96 hrs
MCF7 [23] = test: Cytotoxicity against human MCF7 cells assessed as reduction in cell viability at 100 uM incubated for 24 hrs by MTT assay relative to control; assay type: functional
A549 = test: Antiproliferative activity against human A549 cells assessed as cell growth inhibition incubated for 48 hrs by MTT assay; assay type: functional, cell-based; conditions: A549, 48 h
[24] = Antiproliferative activity against human HEK cells assessed as cell growth inhibition incubated for 72 hrs by Beckman Coulter counting method; assay type: toxicity, cell-based
MIA PaCa-2 [25] = test: Antiproliferative activity against human MIA PaCa-2 cells assessed as cell growth inhibition incubated for 72 hrs by Beckman Coulter counting method; assay type: functional, cell-based; conditions: MIA PaCa-2, 72 h
HL-60 [26] = test: Antiproliferative activity against human HL-60 cells assessed as cell growth inhibition incubated for 72 hrs by Calcein AM staining based fluorescence assay; assay type: functional; conditions: HL-60, 72 h
HeLa [27] = test: Cytotoxicity against human HeLa cells assessed as reduction in cell viability at 100 uM incubated for 24 hrs by MTT assay relative to control; assay type: functional
G-361 = test: Antiproliferative activity against human G361 cells assessed as cell growth inhibition incubated for 72 hrs by Beckman Coulter counting method; assay type: functional, cell-based; conditions: G-361, 72 h
M4Beu cell line = test: Cytotoxicity against human M4Beu cell line assessed as inhibition of cell growth incubated for 14 days by crystal violet staining based assay; assay type: functional; conditions: 336 h
HeLa [28] = test: Antiproliferative activity against human HeLa cells assessed as cell growth inhibition incubated for 72 hrs by Calcein AM staining based fluorescence assay; assay type: functional
[29] = Antiproliferative activity against human PZ-HPV-7 cells assessed as reduction in cell viability incubated for 48 to 96 hrs by crystal violet staining assay; assay type: toxicity, cell-based; conditions: time 48-96 hrs
HCT-116 = test: Antiproliferative activity against human HCT-116 cells assessed as cell growth inhibition incubated for 72 hrs by Beckman Coulter counting method; assay type: functional, cell-based; conditions: HCT-116, 72 h
CCRF-CEM = test: Antiproliferative activity against human CEM cells assessed as cell growth inhibition incubated for 72 hrs by Calcein AM staining based fluorescence assay; assay type: functional
MCF7 [30] = test: Antiproliferative activity against human MCF7 cells assessed as cell growth inhibition incubated for 72 hrs by Calcein AM staining based fluorescence assay; assay type: functional; conditions: MCF7, 72 h

`OC[C@H]1O[C@@H](n2cnc3c(NCc4ccco4)ncnc32)C[C@@H]1O` showed an IC50 (OVCAR-3 [1]) greater than 100 µM, an IC50 (MIA PaCa-2 [2]) greater than 100 µM and an IC50 (MCF7 [3]) greater than 100 µM. It also gave an IC50 (MIA PaCa-2 [4]) greater than 100 µM, an IC50 (HeLa [5]) greater than 100 µM and an IC50 at 24 h [6] greater than 100 µM. It also gave an IC50 at 48 h [7] greater than 100 µM, an IC50 (OVCAR-3 [8]) greater than 100 µM and an IC50 (Caco-2 [9]) greater than 100 µM. For the same molecule, the IC50 (Caco-2 [10]) was greater than 100 µM, the IC50 (HeLa [11]) was greater than 100 µM and the IC50 (HeLa [12]) was greater than 100 µM. The IC50 at 72 h [13] was greater than 100 µM, the IC50 (OVCAR-3 [14]) was greater than 100 µM and the IC50 (Caco-2 [15]) was greater than 100 µM. For the same molecule, the IC50 (MIA PaCa-2 [16]) was greater than 100 µM, the IC50 (MCF7 [17]) was greater than 100 µM and the IC50 (MCF7 [18]) was greater than 100 µM.
With `Nc1nc(NCc2ccco2)c2ncn([C@@H]3O[C@H](CO)[C@@H](O)[C@H]3O)c2n1` the IC50 (OVCAR-3 [1]) was greater than 100 µM, the IC50 (MIA PaCa-2 [2]) was greater than 100 µM and the IC50 (MCF7 [3]) was greater than 100 µM. The IC50 (MIA PaCa-2 [4]) was greater than 100 µM, the IC50 (HeLa [5]) was greater than 100 µM and the IC50 at 24 h [6] was greater than 100 µM. For the same molecule, the IC50 at 48 h [7] was greater than 100 µM, the IC50 (OVCAR-3 [8]) was greater than 100 µM and the IC50 (Caco-2 [9]) was greater than 100 µM. For the same molecule, the IC50 (Caco-2 [10]) was greater than 100 µM, the IC50 (HeLa [11]) was greater than 100 µM and the IC50 (HeLa [12]) was greater than 100 µM. It also gave an IC50 at 72 h [13] greater than 100 µM, an IC50 (OVCAR-3 [14]) greater than 100 µM and an IC50 (Caco-2 [15]) greater than 100 µM. For the same molecule, the IC50 (MIA PaCa-2 [16]) was greater than 100 µM, the IC50 (MCF7 [17]) was greater than 100 µM and the IC50 (MCF7 [18]) was greater than 100 µM.
`OC[C@H]1O[C@@H](n2cnc3c(NCc4ccoc4)ncnc32)[C@H](O)[C@@H]1O` showed an IC50 (OVCAR-3 [1]) greater than 100 µM, an IC50 (MIA PaCa-2 [2]) greater than 100 µM and an IC50 (MCF7 [3]) of 2.2 µM. For the same molecule, the Activity (MIA PaCa-2 [19]) was roughly 90%, the Activity (MIA PaCa-2 [20]) was 40% and the IC50 (MIA PaCa-2 [4]) was 1.1 µM. The IC50 (HeLa [5]) was greater than 100 µM, the IC50 at 24 h [6] was 16 µM and the IC50 at 48 h [7] was 1 µM. The IC50 (OVCAR-3 [8]) was 3.3 µM, the IC50 (Caco-2 [9]) was 13.1 µM and the IC50 (Caco-2 [10]) was 18.5 µM. For the same molecule, the IC50 (HeLa [11]) was greater than 100 µM, the IC50 (HeLa [12]) was greater than 100 µM and the IC50 at 72 h [13] was 0.7 µM. For the same molecule, the IC50 (OVCAR-3 [14]) was 1.8 µM, the IC50 (Caco-2 [15]) was 6.5 µM and the IC50 (MIA PaCa-2 [16]) was 1.4 µM. The IC50 (MCF7 [17]) was 12 µM and the IC50 (MCF7 [18]) was 2.1 µM.
Molecule `OC[C@H]1O[C@@H](n2cnc3c(NCc4ccco4)ncnc32)[C@H](O)[C@@H]1O` [KINETIN RIBOSIDE] has an IC50 (HCT-15) of 12.3 µM, an IC50 (OVCAR-3 [1]) greater than 100 µM and an IC50 (LOX IMVI) of 0.16 µM. It also gave an IC50 (HT-29) of 0.16 µM, an IC50 (MIA PaCa-2 [2]) greater than 100 µM and an IC50 (MCF7 [3]) of 2.8 µM. It also gave an IC50 (HL-60 [21]) of 0.98 µM, an IC50 (A-375) of 0.16 µM and an IC50 (MIA PaCa-2 [4]) of 2.6 µM. The IC50 (HeLa [5]) was greater than 100 µM, the IC50 (B16) was 0.2 µM and the IC50 at 24 h [6] was 18 µM. For the same molecule, the IC50 at 48 h [7] was 2.5 µM, the IC50 at 72 h [22] was 0.18 µM and the IC50 (OVCAR-3 [8]) was 7.8 µM. For the same molecule, the Activity (MRC5) was ~ 80%, the Activity (DU-145) was 35% and the IC50 (Caco-2 [9]) was 42 µM. The Activity (MCF7 [23]) was roughly 80%, the IC50 (A549) was 10.5 µM and the IC50 (Caco-2 [10]) was 88 µM. For the same molecule, the IC50 at 72 h [24] was 0.11 µM, the IC50 (HeLa [11]) was greater than 100 µM and the IC50 (HeLa [12]) was greater than 100 µM. The IC50 (MIA PaCa-2 [25]) was 0.16 µM, the IC50 at 72 h [13] was 1.7 µM and the IC50 (HL-60 [26]) was 0.8 µM. For the same molecule, the IC50 (OVCAR-3 [14]) was 3.1 µM, the Activity (HeLa [27]) was roughly 30% and the IC50 (G-361) was 0.16 µM. For the same molecule, the IC50 (M4Beu cell line) was 1.5 µM, the IC50 (HeLa [28]) was 4.3 µM and the Activity [29] was 85%. For the same molecule, the IC50 (HCT-116) was 0.16 µM, the IC50 (Caco-2 [15]) was 23.5 µM and the IC50 (CCRF-CEM) was 1.6 µM. The IC50 (MCF7 [30]) was 4.3 µM, the IC50 (MIA PaCa-2 [16]) was 3.1 µM and the IC50 (MCF7 [17]) was 16.1 µM. It also gave an IC50 (MCF7 [18]) of 2.7 µM.
